Assay results: the NIST ThermoML archive (doi:10.1016/j.jct.2018.07.023)
“And” between values parts separate entries of the source, which are not always exact repeats. Identical values can stand only once.

Columns and labels:
[1] = Molar enthalpy of transition or fusion; conditions: Crystal; DSC
[2] = molar enthalpy of vaporization or sublimation; conditions: Static calorimetry

COc1cc(C=O)ccc1O [vanillin]
Conditions | Molar enthalpy of transition or fusion [kcal/mol]
[1] | 5.47

Conditions | molar enthalpy [kcal/mol] | vapor or sublimation pressure
303.13 K, Crystal, Calculated from knudsen effusion weight loss | – | 6.6e-05 kPa and 6.5e-05 kPa
305.32 K, Crystal, Calculated from knudsen effusion weight loss | – | 8.9e-05 kPa and 8.8e-05 kPa
307.19 K, Crystal, Calculated from knudsen effusion weight loss | – | 0.000112 kPa and 0.000113 kPa and 0.000114 kPa
309.13 K, Crystal, Calculated from knudsen effusion weight loss | – | 0.000144 kPa and 0.000142 kPa and 0.000145 kPa
311.35 K, Crystal, Calculated from knudsen effusion weight loss | – | 0.000185 kPa and 0.000182 kPa and 0.000187 kPa
313.2 K, Crystal, Calculated from knudsen effusion weight loss | – | 0.000235 kPa and 0.000234 kPa and 0.000236 kPa
315.11 K, Crystal, Calculated from knudsen effusion weight loss | – | 0.000292 kPa and 0.00029 kPa and 0.000294 kPa
317.29 K, Crystal, Calculated from knudsen effusion weight loss | – | 0.000384 kPa and 0.000383 kPa
319.19 K, Crystal, Calculated from knudsen effusion weight loss | – | 0.000472 kPa and 0.000474 kPa and 0.000478 kPa
320.95 K, Crystal, Closed cell (Static) method | – | 0.00058 kPa
321.11 K, Crystal, Calculated from knudsen effusion weight loss | – | 0.000597 kPa and 0.000586 kPa and 0.000599 kPa
322.92 K, Crystal, Closed cell (Static) method | – | 0.00072 kPa
323.29 K, Crystal, Calculated from knudsen effusion weight loss | – | 0.000759 kPa and 0.00075 kPa and 0.000765 kPa
324.92 K, Metastable liquid, Closed cell (Static) method | – | 0.00192 kPa
324.98 K, Crystal, Closed cell (Static) method | – | 0.00092 kPa
325.2 K, Crystal, Calculated from knudsen effusion weight loss | – | 0.000955 kPa and 0.000953 kPa and 0.00094 kPa
326.9 K, Crystal, Closed cell (Static) method | – | 0.00114 kPa
326.91 K, Metastable liquid, Closed cell (Static) method | – | 0.00226 kPa
328.87 K, Metastable liquid, Closed cell (Static) method | – | 0.00268 kPa
328.94 K, Crystal, Closed cell (Static) method | – | 0.00143 kPa
330.87 K, Metastable liquid, Closed cell (Static) method | – | 0.00316 kPa
330.89 K, Crystal, Closed cell (Static) method | – | 0.00175 kPa
332.83 K, Metastable liquid, Closed cell (Static) method | – | 0.00373 kPa
332.87 K, Crystal, Closed cell (Static) method | – | 0.00215 kPa
334.8 K, Metastable liquid, Closed cell (Static) method | – | 0.00439 kPa
334.84 K, Crystal, Closed cell (Static) method | – | 0.00266 kPa
336.81 K, Metastable liquid, Closed cell (Static) method | – | 0.00517 kPa
336.83 K, Crystal, Closed cell (Static) method | – | 0.0033 kPa
338.81 K, Metastable liquid, Closed cell (Static) method | – | 0.00609 kPa
338.83 K, Crystal, Closed cell (Static) method | – | 0.00407 kPa
340.8 K, Metastable liquid, Closed cell (Static) method | – | 0.00717 kPa
340.83 K, Crystal, Closed cell (Static) method | – | 0.00502 kPa
342.78 K, Metastable liquid, Closed cell (Static) method | – | 0.00834 kPa
342.8 K, Crystal, Closed cell (Static) method | – | 0.0061 kPa
344.77 K, Crystal, Closed cell (Static) method | – | 0.00747 kPa
344.79 K, Metastable liquid, Closed cell (Static) method | – | 0.00978 kPa
346.69 K, Metastable liquid, Closed cell (Static) method | – | 0.01123 kPa
346.73 K, Crystal, Closed cell (Static) method | – | 0.00911 kPa
348.72 K, Crystal, Closed cell (Static) method | – | 0.01103 kPa
348.73 K, Metastable liquid, Closed cell (Static) method | – | 0.01314 kPa
350.68 K, Metastable liquid, Closed cell (Static) method | – | 0.01523 kPa
350.7 K, Crystal, Closed cell (Static) method | – | 0.01345 kPa
352.63 K, Metastable liquid, Closed cell (Static) method | – | 0.01755 kPa
354.6 K, Metastable liquid, Closed cell (Static) method | – | 0.02014 kPa
356.63 K, Closed cell (Static) method, Liquid | – | 0.02334 kPa
358.57 K, Closed cell (Static) method, Liquid | – | 0.02665 kPa
360.48 K, Closed cell (Static) method, Liquid | – | 0.03073 kPa
362.45 K, Closed cell (Static) method, Liquid | – | 0.03517 kPa
364.45 K, Closed cell (Static) method, Liquid | – | 0.04012 kPa
366.47 K, Closed cell (Static) method, Liquid | – | 0.04555 kPa
368.43 K, Closed cell (Static) method, Liquid | – | 0.05205 kPa
370.37 K, Closed cell (Static) method, Liquid | – | 0.05931 kPa
372.38 K, Closed cell (Static) method, Liquid | – | 0.06765 kPa
374.32 K, Closed cell (Static) method, Liquid | – | 0.07665 kPa
376.51 K, Closed cell (Static) method, Liquid | – | 0.08673 kPa
378.22 K, Closed cell (Static) method, Liquid | – | 0.09764 kPa
380.28 K, Closed cell (Static) method, Liquid | – | 0.1104 kPa
382.26 K, Closed cell (Static) method, Liquid | – | 0.1243 kPa
[2], 298.15 K, Crystal | 23.8 | –
[2], 375.81 K, Liquid | 17.9 | –

Conditions | Normal melting temperature [°C]
Crystal, DTA | 82.6
